# Test results published in patent US7494821B2, “Fluorescein based sensors for tracking nitric oxide in live cells” (Massachusetts Institute of Technology, priority 2005, dated 2009).
# How the values were obtained:
# Quantum yield = format: physicochemical
# Source text: Quantum yield may be obtained by comparison of the integrated area of the corrected emission spectrum of the sample with that of a reference solution. A preferred reference solution is a solution of fluorescein in 0.1 N NaOH, quantum efficiency 0.95. The concentration of the reference is adjusted to match the absorbance of the test sample. The quantum yields may be calculated using the following equation.
# Upon addition of excess NO, a 499 nm peak in the UV-vis spectrum of Cu(FL5) in pH 7.0 buffered solution red-shifted back to the λmax characteristic of FL5 or the synthetic FL5−NO compound (504 nm), which differs from the band formed in the reaction of FL5 with 1 equivalent of Cu(I) added as [Cu(CH3CN)4](BF4) (506 nm). […] In addition, the spectrum of the NO reaction solution closely resembled that of the monoanionic fluorescein formed by lowering the pH from 7.0 to 5.0. […] These values are in the range previously reported for N-nitrosamines. The presence of two separate chemical shifts might arise from different isomers in solution, the Δδ of 2.29 being similar to that of previously reported of N-nitrosamines. […] Lastly, FL5−NO is brighter than FL5 or Cu(FL5), the respective quantum yields being ΦFL-NO=0.58±0.02 and ΦFL=0.077±0.002.
# [1] = Cu(II) binding of FL5 (UV-vis titration with CuCl2; fluorescence quenching); conditions: 1 μM FL5 solution, 37° C.
# Experimental: Derivatized fluorescein molecules are excellent biosensors because they excite and emit in a region of the visible spectrum that is relatively free of interference. We prepared the fluorescein-based ligand FL5 (FIG. 4) by reacting 7′-chloro-4′-fluorescein-carboxaldehyde with 8-aminoquinaldine. We generated the Cu(II) fluorescein-based NO probe Cu(FL5) (FIG. 4) in situ reacting FL5 (prepared as described below) awith CuCl2 in a 1:1 ratio in buffered aqueous solution (50 mM PIPES, pH 7.0, 100 mM KCl). […] A Job's plot was constructed to evaluate the nature of the FL5:Cu(II) complex by following the UV-vis absorption spectral change at 512 nm in pH 7.0 buffered solution. A break at 0.5 indicated the formation of a 1:1 complex.
# (§1) The fluorescence of a 1 μM FL5 solution was diminished by 18±3% upon introduction of an equimolar quantity of CuCl2 at 37° C. Addition of excess NO to a buffered aqueous Cu(FL5) solution led to an immediate 11.2±1.5-fold increase in fluorescence (FIG. 5). […] The lower detection limit for NO is 5 nM.
# [2] = tested on: mixture of Raw 264.7 and SK-N-SH cells; assay: NO imaging in Raw 264.7 and SK-N-SH co-culture; format: cell-based; conditions: 17β-estradiol (100 nM) and Cu(FL5) (1 μM) for 10 min
# Experimental: FIG. 9 illustrates NO detection in SK-N-SH and Raw 264.7 cells by Cu(FL5). Cells were treated with Cu(FL5) (1 μM) and 17β-estradiol (500 nM) for 10 min. The media were subsequently removed and the cells washed with PBS. Images were taken with a Nikon Eclipse TS100 microscope.
# The fluorescence response was also monitored in a mixture of Raw 264.7 and SK-N-SH cells grown on the same plate and co-treated with 17β-estradiol (100 nM) and Cu(FL5) (1 μM) for 10 min.
# SK-N-SH cells = assay: MTT cytotoxicity assay on SK-N-SH cells; format: cell-based, human
# Experimental: To test the toxicity of Cu(FL5), a MTT [3-(4,5-dimethylthiazol-2-yl)-2,5-diphenyltetrazolium bromide] assay was performed on SK-N-SH cells after 5 days of incubation with Cu(FL5) (1 μM).
# Thus, both Cu(FL5) and FL5−NO are not toxic under the conditions used here for bioimaging of NO.
# (§2) Raw 264.7, SK-N-SH, and HeLa cells were purchased from the American Type Culture Collection (ATCC). All three cell lines were maintained in Dulbecco's modified Eagles' media (DMEM) (GibcoBRL) containing 10% (v/v) heat-inactivated fetal bovine serum (FBS) (HyClone), 1 mM sodium pyruvate (Sigma), 100 units/ml penicillin, 100 μg/ml streptomycin (Invitrogen), and 0.1 mM nonessential amino acid solution for minimal essential medium (Sigma). All cells were grown at 37° C. in a humidified atmosphere of 10% CO2. A nitrite assay was performed with Griess reagents (Promega) on Raw 264.7 cells grown in DMEM free of phenol red. Calcium sensor fluo-4 AM was purchased from Invitrogen. MTT [3-(4,5-dimethylthiazol-2-yl)-2,5-diphenyltetrazolium bromide] (Sigma-Aldrich) assay was described in Supplementary information. The expression of iNOS in Raw 264.7 cells was analyzed by Western blot on the extracts of cells stimulated by LPS and INF-γ. The protein was silenced by short hairpin RNA-induced RNAi and the resulting cell lines were used in fluorescence imaging by Cu(FL5).
# iNOS = iNOS expression in Raw 264.7 cells (Western blot); format: cell-based, murine; conditions: Raw 264.7 cells upon introduction of LPS and IFN-γ
# Experimental: as §2
# Raw 264.7 cells = assay: MTT cytotoxicity assay on Raw 264.7 cells; format: cell-based, murine; conditions: Cu(FL5) 1 μM, 5 days
# Experimental: as §2
# [3] = Specificity for NO over other reactive nitrogen and oxygen species; conditions: 100 equivalents of O2−, ClO−, H2O2, HNO, NO2−, NO3−, ONOO−, 2 h, pH 7.0 buffer, 1 μM
# Experimental: FIG. 6 illustrates the specificity of Cu(FL5) for NO over other reactive nitrogen and oxygen species. The fluorescence response of Cu(FL5) was determined after addition of 100 equivalents of O2^−, ClO^−, H2O2, HNO (Angeli's salt Na2N2O3), NO2^−, NO3^−, and ONOO^− for 2 h in buffered aqueous solution (50 mM PIPES, pH 7.0, 100 mM KCl). The excitation wavelength was 503 nm. All data (F) are normalized with respect to the emission of Cu(FL5) (F(Cu(FL5))). [Cu(FL5)]=1 μM. Error bars indicate s.d.
# as §1
SMILES,quantum yield Φ (Quantum yield),fluorescence diminished upon introduction of equimolar CuCl2 [1],fluorescence response in co-culture [2],"viable cells (MTT), cell line not specified (SK-N-SH cells; 1 μM Cu(FL5), after 5 days)","survival of SK-N-SH cells (MTT) (SK-N-SH cells; 5 days of incubation, Cu(FL5) 1 μM)",effect on expression of iNOS (iNOS),survival of Raw 264.7 cells (MTT) (Raw 264.7 cells),fluorescence response specificity for NO over other reactive species [3]
"Cc1ccc2cccc(NCc3c(O)ccc4c(-c5ccccc5C(=O)O)c5cc(Cl)c(=O)cc-5oc34)c2n1 [FL5, 2-{2-chloro-6-hydroxy-5-[(2-methyl-quinolin-8-ylamino)-methyl]-3-oxo-3H-xanthen-9-yl}-benzoic acid]",0.077±0.002,18±3%,,,,,,
Cc1ccc2cccc(NCc3c([O][Cu][Cl])ccc4c(-c5ccccc5C(=O)O)c5cc(Cl)c(=O)cc-5oc34)c2n1 [Cu(FL5)],,,fluorescence increase was observed exclusively in the SK-N-SH cells,> 80%,80±9%,does not affect the expression of iNOS,90±3%,detects NO specifically
